In PubChem BioAssay (NCI) one finds GI50 and TGI data, which are given here for seven compounds.

Test systems include NCI/ADR-RES ovarian; CCRF-CEM leukemia; NCI-H23 lung; SF-295 CNS; PC-3 prostate; HCT-15 colon; NCI-H226 lung; HS 578T breast; MALME-3M melanoma; HT29 colon.
What all share (assay): DTP human tumour cell line panel, 48 h

Each structure is given as a SMILES string.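 Five compound concentrations were applied to cells in 96-well plates for 48 hours; endpoints were derived by simple linear interpolation of the resulting dose-response curve. At the GI50, growth is halved. TGI: total growth inhibition.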 Bounds are passed on as bounds.

Regarding `CC[C@H]1OC(=O)[C@H](C)[C@@H](O[C@H]2C[C@@](C)(OC)[C@@H](O)[C@H](C)O2)[C@H](C)[C@@H](O[C@@H]2O[C@H](C)C[C@H](N(C)C)[C@H]2O)[C@](C)(OC)C/C(C)=C2/O[C@@]1(C)C=C2C`, the GI50 in the assay on NCI/ADR-RES ovarian was 1.77 µM; in the assay with CCRF-CEM leukemia it was 2.22 µM; in the assay with NCI-H23 lung, 1.96 µM; in the assay with SF-295 CNS it was 1.85 µM; in the assay on PC-3 prostate it was 1.68 µM; in the assay on HCT-15 colon, 1.89 µM. In addition, the GI50 is 2.12 µM in the assay with NCI-H226 lung, 1.68 µM in the assay with HS 578T breast, 1.58 µM with MALME-3M melanoma and 1.83 µM in the assay on HT29 colon. The TGI in the assay with NCI/ADR-RES ovarian was 3.57 µM; in the assay with CCRF-CEM leukemia it was 5.62 µM; in the assay on NCI-H23 lung, 3.63 µM; with SF-295 CNS it was 3.35 µM; in the assay on PC-3 prostate, 3.46 µM; with HCT-15 colon it was 3.6 µM. Moreover, the concentration for total growth inhibition (TGI) in the assay on NCI-H226 lung worked out at 4.42 µM; with HS 578T breast it was 3.62 µM; with MALME-3M melanoma, 2.97 µM; with HT29 colon it was 4.14 µM.

In the case of `CCOC(=O)/C(=C\c1ccc2ccccc2c1)P(=O)(OCC)OCC`, the GI50 in the assay on NCI/ADR-RES ovarian is 3.15 µM; in the assay on CCRF-CEM leukemia, 1.89 µM; with NCI-H23 lung, 1.95 µM; with SF-295 CNS, 4.76 µM; with PC-3 prostate, 2.84 µM; in the assay with HCT-15 colon it was 1.7 µM. Besides, the GI50 with NCI-H226 lung was 2.39 µM; in the assay on HS 578T breast, 7.17 µM; in the assay on MALME-3M melanoma it was 2.52 µM; with HT29 colon it was 2.8 µM. Further, the TGI turned out to be 11.2 µM in the assay with NCI/ADR-RES ovarian; 6.51 µM in the assay on CCRF-CEM leukemia; 4.78 µM with NCI-H23 lung; 16.2 µM in the assay with SF-295 CNS; 6.81 µM in the assay on PC-3 prostate; 4.45 µM in the assay on HCT-15 colon. Also, the TGI with NCI-H226 lung worked out at 5.88 µM; in the assay on HS 578T breast it was 75.8 µM; in the assay with MALME-3M melanoma, 7.95 µM; in the assay on HT29 colon, 8.18 µM.

Turning to `COc1cccc(-c2nc3sccn3c2-c2ccnc(NCCCNS(=O)(=O)c3ccccc3)c2)c1`, the GI50 was 2.62 µM in the assay with NCI/ADR-RES ovarian; 2.73 µM in the assay on CCRF-CEM leukemia; 2.99 µM with NCI-H23 lung; 3.18 µM in the assay with SF-295 CNS; 1.97 µM in the assay with PC-3 prostate; 3.02 µM with HCT-15 colon. The GI50 with NCI-H226 lung is 2.92 µM; with HS 578T breast, 3.51 µM; in the assay with MALME-3M melanoma, 2.59 µM; in the assay with HT29 colon, 3.23 µM. Further, the concentration for total growth inhibition (TGI) with NCI/ADR-RES ovarian was 8.7 µM; in the assay on CCRF-CEM leukemia it was over 100 µM; in the assay on NCI-H23 lung it was over 100 µM; with SF-295 CNS, 20.8 µM; with PC-3 prostate, 6.3 µM; in the assay with HCT-15 colon, over 100 µM. Moreover, the concentration for total growth inhibition (TGI) in the assay with NCI-H226 lung is over 100 µM; with HS 578T breast, over 100 µM; in the assay with MALME-3M melanoma, 9.73 µM; in the assay on HT29 colon, over 100 µM.

`O=c1[nH]cnc2n[nH]nc12`: the values for the GI50 with NCI/ADR-RES ovarian, with PC-3 prostate and in the assay with HS 578T breast were 0.472 µM, 5.99 µM and 6.11 µM, respectively. Also, the concentration for total growth inhibition (TGI) was over 100 µM with NCI/ADR-RES ovarian; over 100 µM in the assay on CCRF-CEM leukemia; over 100 µM in the assay on NCI-H23 lung; over 53.4 µM in the assay on SF-295 CNS; over 100 µM with PC-3 prostate; over 100 µM in the assay with HCT-15 colon. The TGI in the assay with NCI-H226 lung was over 66.1 µM; in the assay with HS 578T breast it was over 100 µM; in the assay on MALME-3M melanoma it was 46.4 µM; with HT29 colon, over 100 µM.

Regarding `CC(C)OP(=O)(O)c1ncc(-c2ccc(C(F)(F)F)cc2)c(NC2CCCCCC2)n1`, the GI50 was over 100 µM in the assay with NCI/ADR-RES ovarian; over 100 µM in the assay on CCRF-CEM leukemia; over 100 µM in the assay on NCI-H23 lung; over 100 µM with SF-295 CNS; 57.1 µM in the assay with PC-3 prostate; over 100 µM in the assay with HCT-15 colon. For the same compound, the GI50 in the assay with NCI-H226 lung, in the assay with HS 578T breast, with MALME-3M melanoma and in the assay on HT29 colon was over 100 µM throughout. The TGI in the assay with NCI/ADR-RES ovarian, in the assay on CCRF-CEM leukemia, in the assay on NCI-H23 lung, in the assay with SF-295 CNS, in the assay on PC-3 prostate and in the assay on HCT-15 colon was over 100 µM throughout. Further, the TGI in the assay with NCI-H226 lung, in the assay with HS 578T breast, in the assay on MALME-3M melanoma and with HT29 colon was over 100 µM each time.

`COc1ccc(C(O)c2cc3c(N)c(C(=O)Nc4cccc(Br)c4C)sc3nc2C)cc1` (stereo not drawn): the concentration for 50% growth inhibition (GI50) was 0.179 µM in the assay with NCI/ADR-RES ovarian; 0.139 µM in the assay with CCRF-CEM leukemia; 0.276 µM with NCI-H23 lung; 0.133 µM with SF-295 CNS; 0.618 µM with PC-3 prostate; 0.138 µM in the assay with HCT-15 colon. Moreover, the GI50 was 0.989 µM in the assay on NCI-H226 lung, 0.106 µM with HS 578T breast, 0.199 µM in the assay on MALME-3M melanoma and 0.12 µM with HT29 colon. Moreover, the concentration for total growth inhibition (TGI) in the assay on NCI/ADR-RES ovarian is 2.99 µM; in the assay with CCRF-CEM leukemia, over 33.3 µM; in the assay with NCI-H23 lung, over 33.3 µM; in the assay on SF-295 CNS it was 6.14 µM; in the assay on PC-3 prostate it was 18.4 µM; in the assay with HCT-15 colon, over 14.4 µM. Further, the TGI in the assay on NCI-H226 lung is 17.9 µM; in the assay on HS 578T breast, 3.75 µM; with MALME-3M melanoma it was over 33.3 µM; in the assay with HT29 colon, 5.77 µM.

For `COc1cc(-c2nn(-c3cccc(NC(=O)CCNc4ccc(N5CCOCC5)cc4)c3)cc2-c2ccncc2)ccc1Cl`, the GI50 with NCI/ADR-RES ovarian is 4.09 µM; in the assay with CCRF-CEM leukemia, 2.95 µM; in the assay with NCI-H23 lung it was 2.68 µM; in the assay with SF-295 CNS, 2.09 µM; with PC-3 prostate, 2.8 µM; with HCT-15 colon, 2.35 µM. In addition, the GI50 with NCI-H226 lung is 2.89 µM; in the assay with HS 578T breast, 3.27 µM; in the assay with MALME-3M melanoma, 2.31 µM; with HT29 colon, 2.84 µM. Moreover, the concentration for total growth inhibition (TGI) is over 100 µM with NCI/ADR-RES ovarian; over 100 µM with CCRF-CEM leukemia; 20.6 µM in the assay on NCI-H23 lung; 26 µM in the assay with SF-295 CNS; 31.4 µM in the assay with PC-3 prostate; over 100 µM with HCT-15 colon. The TGI with NCI-H226 lung is 27.8 µM; in the assay with HS 578T breast, over 100 µM; with MALME-3M melanoma it was 6.93 µM; in the assay on HT29 colon, 33.4 µM.
